Data: article PMC11239830, “Synthetic macrolides overcoming MLSBK-resistant pathogens” (Cell Discovery, 2024)
≈ marks a conversion by molar mass, not a printed value. Like-named read-outs stand apart in the source and are kept apart here.

Experiments:
Experiment in all cases: MIC, broth microdilution
S. pneumoniae = format: cell-based, Streptococcus pneumoniae
Protocol: (§1) MICs were determined by the microdilution method according to the Clinical and Laboratory Standards Institute guidelines. […] Finally, the 96-well plates were incubated at 37 °C for 16–20 h to observe and record the results. […] The assay for MICs was replicated at least three times.

S. pyogenes = format: cell-based, Streptococcus pyogenes; details: S. pyogenes 12-206, c-ermTR
Protocol: as §1

S. aureus = format: cell-based, Staphylococcus aureus
Protocol: as §1

H. influenzae = format: cell-based, Haemophilus influenzae
Protocol: as §1

[1] = Streptococcus pneumoniae, ATCC49619, S. pneumoniae ATCC49619, Ery-S, read-out: MIC
[2] = Streptococcus pneumoniae, S. pneumoniae 07P390, c-ermB, read-out: MIC
[3] = Streptococcus pneumoniae, S. pneumoniae PU09, mef, read-out: MIC
[4] = Streptococcus pyogenes, read-out: MIC
[5] = Staphylococcus aureus, S. aureus 15B196, c-ermB, read-out: MIC
[6] = Staphylococcus aureus, S. aureus PU32, i-ermA, read-out: MIC
[7] = Haemophilus influenzae, ATCC49247, H. influenzae ATCC49247, Azi-S, read-out: MIC

SMILES	MIC (S. pneumoniae; S. pneumoniae 07P390, c-ermB) [µg/mL]	MIC (S. pneumoniae; S. pneumoniae ATCC49619, Ery-S) [µg/mL]	MIC (S. pneumoniae; S. pneumoniae PU09, mef) [µg/mL]	MIC (S. pyogenes) [µg/mL]	MIC (S. aureus; S. aureus 15B196, c-ermB) [µg/mL]	MIC (S. aureus; S. aureus PU32, i-ermA) [µg/mL]	MIC (H. influenzae; H. influenzae ATCC49247, Azi-S) [µg/mL]	MIC (S. pneumoniae; [1]) [µg/mL]	MIC (S. pneumoniae; [2]) [µg/mL]	MIC (S. pneumoniae; [3]) [µg/mL]	MIC (S. pyogenes; [4]) [µg/mL]	MIC (S. aureus; [5]) [µg/mL]	MIC (S. aureus; [6]) [µg/mL]	MIC (H. influenzae; [7]) [µg/mL]
CC[C@H]1OC(=O)[C@H](C)[C@@H](OC(=O)NCCNCCC#Cc2ccc3c(=O)c(C(=O)O)cn(C4CC4)c3c2)[C@H](C)[C@@H](O[C@@H]2O[C@H](C)C[C@H](N(C)C)[C@H]2O)[C@](C)(OC)C[C@@H](C)C(=NOC)[C@H](C)[C@H]2OC(=O)O[C@@]21C [74c]	0.5 (≈ 0.495 µM)	0.016 (≈ 0.0158 µM)	0.12 (≈ 0.119 µM)	2 (≈ 1.98 µM)	256 (≈ 253 µM)	8 (≈ 7.92 µM)	16 (≈ 15.8 µM)							
CC[C@H]1OC(=O)[C@H](C)[C@@H](OC(=O)NCCCOCCC#Cc2ccc3c(=O)c(C(=O)O)c[nH]c3c2)[C@H](C)[C@@H](O[C@@H]2O[C@H](C)C[C@H](N(C)C)[C@H]2O)[C@](C)(OC)C[C@@H](C)C(=O)[C@H](C)[C@H]2NC(=O)O[C@@]21C [95i]								0.12 (≈ 0.126 µM)	1 (≈ 1.05 µM)	0.5 (≈ 0.523 µM)	1 (≈ 1.05 µM)	128 (≈ 134 µM)	8 (≈ 8.38 µM)	16 (≈ 16.8 µM)
CC[C@H]1OC(=O)[C@H](C)[C@@H](OC(=O)NCCCOCCC#Cc2ccc3cc(C(=O)O)cnc3c2)[C@H](C)[C@@H](O[C@@H]2O[C@H](C)C[C@H](N(C)C)[C@H]2O)[C@](C)(OC)C[C@@H](C)C(=O)[C@H](C)[C@H]2NC(=O)O[C@@]21C [95j]								1 (≈ 1.06 µM)	> 256	8 (≈ 8.52 µM)	128 (≈ 136 µM)	> 256	64 (≈ 68.1 µM)	128 (≈ 136 µM)
CC[C@H]1OC(=O)[C@H](C)[C@@H](OC(=O)NCCCC#Cc2ccc3c(=O)c(C(=O)O)cn(C4CC4)c3c2)[C@H](C)[C@@H](O[C@@H]2O[C@H](C)C[C@H](N(C)C)[C@H]2O)[C@](C)(O)C[C@@H](C)CN(C)[C@H](C)[C@H]2OC(=O)O[C@@]21C [108c]	128 (≈ 134 µM)	0.25 (≈ 0.262 µM)	1 (≈ 1.05 µM)	64 (≈ 67.1 µM)	512 (≈ 537 µM)	64 (≈ 67.1 µM)	8 (≈ 8.39 µM)							
CC[C@H]1OC(=O)[C@H](C)[C@@H](OC(=O)NCCCCC#Cc2ccc3c(c2)c(=O)c(C(=O)O)cn3C2CC2)[C@H](C)[C@@H](O[C@@H]2O[C@H](C)C[C@H](N(C)C)[C@H]2O)[C@](C)(O)C[C@@H](C)CN(C)[C@H](C)[C@H]2OC(=O)O[C@@]21C [109a]	256 (≈ 265 µM)	1 (≈ 1.03 µM)	2 (≈ 2.07 µM)	128 (≈ 132 µM)	256 (≈ 265 µM)	32 (≈ 33.1 µM)	32 (≈ 33.1 µM)							

Next, values leading:

MIC (S. pneumoniae; S. pneumoniae 07P390, c-ermB) [µg/mL]	MIC (S. pneumoniae; S. pneumoniae ATCC49619, Ery-S) [µg/mL]	MIC (S. pneumoniae; S. pneumoniae PU09, mef) [µg/mL]	MIC (S. pyogenes) [µg/mL]	MIC (S. aureus; S. aureus 15B196, c-ermB) [µg/mL]	MIC (S. aureus; S. aureus PU32, i-ermA) [µg/mL]	MIC (H. influenzae; H. influenzae ATCC49247, Azi-S) [µg/mL]	MIC (S. pneumoniae; [1]) [µg/mL]	MIC (S. pneumoniae; [2]) [µg/mL]	MIC (S. pneumoniae; [3]) [µg/mL]	MIC (S. pyogenes; [4]) [µg/mL]	MIC (S. aureus; [5]) [µg/mL]	MIC (S. aureus; [6]) [µg/mL]	MIC (H. influenzae; [7]) [µg/mL]	SMILES
							0.016 (≈ 0.0163 µM)	0.12 (≈ 0.122 µM)	0.06 (≈ 0.0612 µM)	2 (≈ 2.04 µM)	64 (≈ 65.3 µM)	4 (≈ 4.08 µM)	16 (≈ 16.3 µM)	CC[C@H]1OC(=O)[C@H](C)[C@@H](OC(=O)NCCCCCC#Cc2ccc3c(=O)c(C(=O)O)cn(C4CC4)c3c2)[C@H](C)[C@@H](O[C@@H]2O[C@H](C)C[C@H](N(C)C)[C@H]2O)[C@](C)(OC)C[C@@H](C)C(=O)[C@H](C)[C@H]2OC(=O)O[C@@]21C [79c]
							≤ 0.008	0.06 (≈ 0.0613 µM)	0.03 (≈ 0.0306 µM)	1 (≈ 1.02 µM)	64 (≈ 65.4 µM)	1 (≈ 1.02 µM)	8 (≈ 8.17 µM)	CC[C@H]1OC(=O)[C@H](C)[C@@H](OC(=O)NCCCCCC#Cc2ccc3c(=O)c(C(=O)O)cn(C4CC4)c3c2)[C@H](C)[C@@H](O[C@@H]2O[C@H](C)C[C@H](N(C)C)[C@H]2O)[C@](C)(OC)C[C@@H](C)C(=O)[C@H](C)[C@H]2NC(=O)O[C@@]21C [87c]
							0.5 (≈ 0.534 µM)	> 256	1 (≈ 1.07 µM)	128 (≈ 137 µM)	> 256	8 (≈ 8.54 µM)	128 (≈ 137 µM)	CC[C@H]1OC(=O)[C@H](C)[C@@H](OC(=O)NCCCCCCC#Cc2ccc3cc(C(=O)O)cnc3c2)[C@H](C)[C@@H](O[C@@H]2O[C@H](C)C[C@H](N(C)C)[C@H]2O)[C@](C)(OC)C[C@@H](C)C(=O)[C@H](C)[C@H]2NC(=O)O[C@@]21C [88j]
